Data set [1] addresses T1, human A2B adenosine receptors (Homo sapiens, UniProt P29275).
T1 construct: expressed in transfected cells; host or cells: CHO cells (whole cells)
T1 sequence (P29275 1-332): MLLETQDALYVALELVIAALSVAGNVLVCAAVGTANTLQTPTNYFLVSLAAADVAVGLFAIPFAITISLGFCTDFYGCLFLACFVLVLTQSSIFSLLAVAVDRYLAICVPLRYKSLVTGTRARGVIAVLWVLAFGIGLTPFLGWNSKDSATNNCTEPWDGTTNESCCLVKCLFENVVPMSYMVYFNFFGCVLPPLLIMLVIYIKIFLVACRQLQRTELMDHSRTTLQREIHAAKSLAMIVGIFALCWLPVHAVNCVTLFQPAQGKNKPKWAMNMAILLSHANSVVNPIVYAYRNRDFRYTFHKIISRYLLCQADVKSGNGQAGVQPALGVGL
The experiment in a line: cAMP assay in CHO cells expressing human A2B adenosine receptors (antagonism of NECA-induced cAMP). Particulars: antagonism of NECA (100 nM)-induced cAMP, geometric mean (95% confidence limits), read-out: IC50 hA2B (cAMP assay). It is filed as cell-based. As to the method:
Measurement of Cyclic AMP Levels in CHO Cells Transfected with Human A2B Adenosine Receptors
CHO cells transfected with human A2B adenosine receptors are washed with phosphate-buffered saline, diluted trypsine and centrifuged for 10 min at 200 g. The pellet containing the CHO cells (1×10^6 cells/assay) is suspended in 0.5 mL of incubation mixture: NaCl 150 mM, KCl 2.7 mM, NaH2PO4 0.37 mM, MgSO4 1 mM, CaCl2 1 mM, Hepes 5 mM, MgCl2 10 mM, glucose 5 mM, pH 7.4 at 37° C. Then 2.0 IU/mL adenosine deaminase and 0.5 mM 4-(3-butoxy-4-methoxybenzyl)-2-imidazolidinone (Ro 20-1724) as phosphodiesterase inhibitor are added and preincubated for 10 min a shaking bath at 37° C. The potency of antagonists studied are determined by antagonism of NECA (100 nM)-induced stimulation of cyclic AMP levels. The reaction is terminated by the addition of cold 6% thrichloroacetic acid (TCA). The TCA suspension is centrifuged at 2000 g for 10 min at 4° C. and the supernatant is extracted four times with water saturated diethyl ether. The final aqueous solution is tested for cyclic AMP levels by a competition protein binding assay. Samples of cyclic AMP standard ([…]) are added to each test tube containing the incubation buffer (trizma base 0.1 M, aminophylline 8.0 mM, 2-mercaptoethanol 6.0 mM (pH 7.4) and [^3H]cyclic AMP in a total volume of 0.5 mL. The binding protein previously prepared from beef adrenals, is added to the samples previously incubated at 4° C. for 150 min, and after the addition of charcoal are centrifuged at 2000 g for 10 min. The clear supernatant is counted with 4 mL of Atomlight liquid scintillator and counted in a Tri Carb Packard 2500 TR scintillation counter.
The protein concentration is determined according to a Bio-Rad method (Bradford, Anal Biochem. 1976, 72: 248-254) with bovine albumin as a standard reference. Inhibitory binding constant, Ki, values are calculated from those of IC50 according to Cheng & Prusoff equation (Biochem. Pharmacol 1973, 22: 3099-3108): Ki=IC50/(1+[C*]/KD*) where [C*] is the concentration of the radioligand and KD* its dissociation constant. A weighted non linear least-squares curve fitting program LIGAND (Munson et al., Anal. Biochem 1980, 107: 220-239) is used for computer analysis of inhibition experiments Data are expressed as geometric mean with 95% confidence limits in parentheses. Examples of Animal Models
(In general: cAMP levels reflect the balance of adenylyl cyclase and phosphodiesterase activity.)

Where only a bound is given, the exact number is not on record here.

Usually IC50 stands for the concentration that gives 50% inhibition. The melting point is the temperature of the solid-liquid transition. For the molecule `CCCn1c(=O)c2[nH]c(-c3cc(C)n(CC(=O)Nc4cccc(OC)c4)n3)nc2n(CCC)c1=O` [Example 14, 2-[3-(2,6-Dioxo-1,3-dipropyl-2,3,6,7-tetrahydro-1H-purin-8-yl)-5-methyl-pyrazol-1-yl]-N-(3-methoxylphenyl)-acetamide], the melting point fell in the range of 274 to 277 °C. In data set [1], the IC50 came to 266 nM.
`CCCn1c(=O)c2[nH]c(-c3cc(C)n(CC(=O)Nc4ccc(C)cc4)n3)nc2n(CCC)c1=O` [Example 17, 2-[3-(2,6-Dioxo-1,3-dipropyl-2,3,6,7-tetrahydro-1H-purin-8-yl)-5-methyl-pyrazol-1-yl]-N-p-tolyl-acetamide] gave a melting point above 300 °C. Besides, in data set [1], the IC50 stood at 212 nM.
Take `CCCn1c(=O)c2[nH]c(-c3ccn(CC(=O)Nc4ccc(Cl)cc4)n3)nc2n(CCC)c1=O` [Example 10, 2-[3-(2,6-Dioxo-1,3-dipropyl-2,3,6,7-tetrahydro-1H-purin-8-yl)-pyrazol-1-yl]-N-(4-chloro-phenyl)-acetamide]: the melting point was 283 to 285 °C. The IC50 in data set [1] was determined as 80 nM.
For `CCCn1c(=O)c2[nH]c(-c3cc(C)n(CC(=O)Nc4ccc(C(C)CC)cc4)n3)nc2n(CCC)c1=O` (stereo not drawn) [Example 12, 2-[3-(2,6-Dioxo-1,3-dipropyl-2,3,6,7-tetrahydro-1H-purin-8-yl)-5-methyl-pyrazol-1-yl]-N-(4-sec-butylphenyl)-acetamide] the same measures were 268 to 271 °C and above 1000 nM.
For `CCCn1c(=O)c2[nH]c(-c3cc(C)n(CC(=O)Nc4ccc(OC)c(OC)c4)n3)nc2n(CCC)c1=O` [Example 8, 2-[3-(2,6-Dioxo-1,3-dipropyl-2,3,6,7-tetrahydro-1H-purin-8-yl)-5-methyl-pyrazol-1-yl]-N-(3,4-dimethoxyphenyl)-acetamide] the same measures were 285 to 290 °C and 222 nM.
Taken in the same sequence, the figures for `CCCn1c(=O)c2[nH]c(-c3cc(C)n(CC(=O)Nc4ccc(OC)cc4)n3)nc2n(CCC)c1=O` [Example 6, 2-[3-(2,6-Dioxo-1,3-dipropyl-2,3,6,7-tetrahydro-1H-purin-8-yl)-5-methyl-pyrazol-1-yl]-N-(4-methoxyphenyl)-acetamide] were 293 to 296 °C and 61 nM.
Consider `CCCn1c(=O)c2[nH]c(-c3cc(C)n(CC(=O)Nc4ccccc4)n3)nc2n(CCC)c1=O` [Example 1, 2-[3-(2,6-Dioxo-1,3-dipropyl-2,3,6,7-tetrahydro-1H-purin-8-yl)-5-methyl-pyrazol-1-yl]-N-phenyl-acetamide], for which the melting point was in the range of 255 to 257 °C. Also, the IC50 in data set [1] turned out to be 58 nM.
Taken in the same sequence, the figures for `CCCn1c(=O)c2[nH]c(-c3cc(C)n(CC(=O)Nc4ccc(C)c(C)c4)n3)nc2n(CCC)c1=O` [Example 7, 2-[3-(2,6-Dioxo-1,3-dipropyl-2,3,6,7-tetrahydro-1H-purin-8-yl)-5-methyl-pyrazol-1-yl]-N-(3,4-dimethylphenyl)-acetamide] were 261 to 265 °C and 200 nM.
Taken in the same sequence, the figures for `CCCn1c(=O)c2[nH]c(-c3cc(C)n(CC(=O)Nc4cccc(Cl)c4)n3)nc2n(CCC)c1=O` [Example 15, 2-[3-(2,6-Dioxo-1,3-dipropyl-2,3,6,7-tetrahydro-1H-purin-8-yl)-5-methyl-pyrazol-1-yl]-N-(3-chlorophenyl)-acetamide] were 304 to 307 °C and 106 nM.
For `CCCn1c(=O)c2[nH]c(-c3cc(C)n(CC(=O)Nc4ccc(F)cc4)n3)nc2n(CCC)c1=O` [Example 5, 2-[3-(2,6-Dioxo-1,3-dipropyl-2,3,6,7-tetrahydro-1H-purin-8-yl)-5-methyl-pyrazol-1-yl]-N-(4-fluoro-phenyl)-acetamide] the same measures were 205 to 207 °C and 68 nM.
For the molecule `CCCn1c(=O)c2[nH]c(-c3nn(CC(=O)Nc4ccc(Cl)cc4)c(C)c3Cl)nc2n(CCC)c1=O` [Example 18, 2-[4-Chloro-3-(2,6-dioxo-1,3-dipropyl-2,3,6,7-tetrahydro-1H-purin-8-yl)-5-methyl-pyrazol-1-yl]-N-(4-chlorophenyl)-acetamide], the IC50 in data set [1] is above 1000 nM.
In turn, `CCCn1c(=O)c2[nH]c(-c3cc(C)n(CC(=O)Nc4ccc(Cl)c(Cl)c4)n3)nc2n(CCC)c1=O` [Example 16, 2-[3-(2,6-Dioxo-1,3-dipropyl-2,3,6,7-tetrahydro-1H-purin-8-yl)-5-methyl-pyrazol-1-yl]-N-(3,4-dichlorophenyl)-acetamide] had a melting point of 298 °C. Also, the IC50 in data set [1] was found to be 188 nM.
On to `CCCn1c(=O)c2[nH]c(-c3nn(CC(=O)Nc4ccc(Cl)cc4)c(C)c3Br)nc2n(CCC)c1=O` [Example 19, 2-[4-Bromo-3-(2,6-dioxo-1,3-dipropyl-2,3,6,7-tetrahydro-1H-purin-8-yl)-5-methyl-pyrazol-1-yl]-N-(4-chlorophenyl)-acetamide], for which the melting point lay in the range of 298 to 299 °C. Further, in data set [1], the IC50 is above 1000 nM.
In turn, `CCCn1c(=O)c2[nH]c(-c3cc(C)n(CC(=O)Nc4ccc(I)cc4)n3)nc2n(CCC)c1=O` [Example 2, 2-[3-(2,6-Dioxo-1,3-dipropyl-2,3,6,7-tetrahydro-1H-purin-8-yl)-5-methyl-pyrazol-1-yl]-N-(4-iodophenyl)-acetamide] yielded a melting point of 286 to 289 °C. For the same molecule, in data set [1], the IC50 came to 115 nM.
